# Results reported in patent publication US20260234196A1 (priority 2021, published 2026).
# Ends that are not written are not given here. Peptide text beside a SMILES is read from it.
# Legend:
# [1] = test system: 293T-ACE2^+ cells; test: Cytotoxicity by CCK-8 in 293T-ACE2^+ cells; assay type: cell-based, human; details: 1 nM to 100 μM, 48 h; FIGS. 9A-9C, 10A-10C
# Description: ; • (3) The cells were washed once with PBS after discarding supernatant after culturing, 120 μL of cell counting kit-8 (CCK-8) working solution (CCK-8 working solution is obtained by mixing CCK8 stock solution and complete medium in a volume ratio of 1:10, CCK8 stock solution was purchased from Dojindo Molecular Technologies) was added to each well. After mixing, the system was incubated at 37° C. for 3 h, then the absorbance values at 450 nm and 630 nm (reference wavelength) were detected to calculate the cell viability.
# [2] = target: spike protein of the SARS-CoV-2 pseudovirus (PSV) (SARS-CoV-2), P0DTC2; test: cell-based or functional assay
molecule,measurement,setting,value
GDLFDDSNLDPFRDRISTRR [KVp-R14N],effect on 293T-ACE2^+ cells viability (CCK-8),[1],not significant
GDGVYYPRDVFDSSVLDSTQR [KVp-N1N],effect on 293T-ACE2^+ cells viability (CCK-8),[1],not significant
CC[C@H](C)[C@H](NC(=O)[C@H](CCCNC(=N)N)NC(=O)[C@H](CC(=O)O)NC(=O)[C@H](CCCNC(=N)N)NC(=O)[C@H](Cc1ccccc1)NC(=O)[C@@H]1CCCN1C(=O)[C@H](CC(=O)O)NC(=O)[C@H](CC(C)C)NC(=O)[C@H](CC(N)=O)NC(=O)[C@H](CO)NC(=O)[C@H](CC(=O)O)NC(=O)[C@H](CC(=O)O)NC(=O)[C@H](Cc1ccccc1)NC(=O)[C@H](CC(C)C)NC(=O)[C@H](CC(=O)O)NC(=O)CNC(=O)[C@@H]1CCCN1C(=O)[C@@H]1CCCN1C(=O)[C@@H]1CCCN1C(=O)[C@@H]1CCCN1C(=O)[C@H](CS)NC(=O)[C@@H](N)CS)C(=O)N[C@@H](CO)C(=O)N[C@H](C(=O)N[C@@H](CCCNC(=N)N)C(=O)N[C@@H](CCCNC(=N)N)C(=O)O)[C@@H](C)O [KVp-R14] (H-CCPPPPGDLFDDSNLDPFRDRISTRR-OH),effect on 293T-ACE2^+ cells viability (CCK-8),[1],not significant
CC(C)C[C@H](NC(=O)[C@@H](NC(=O)[C@H](CO)NC(=O)[C@H](CO)NC(=O)[C@H](CC(=O)O)NC(=O)[C@H](Cc1ccccc1)NC(=O)[C@@H](NC(=O)[C@H](CC(=O)O)NC(=O)[C@H](CCCNC(=N)N)NC(=O)[C@@H]1CCCN1C(=O)[C@H](Cc1ccc(O)cc1)NC(=O)[C@H](Cc1ccc(O)cc1)NC(=O)[C@@H](NC(=O)CNC(=O)[C@H](CC(=O)O)NC(=O)CNC(=O)[C@@H]1CCCN1C(=O)[C@@H]1CCCN1C(=O)[C@@H]1CCCN1C(=O)[C@@H]1CCCN1C(=O)[C@H](CS)NC(=O)[C@@H](N)CS)C(C)C)C(C)C)C(C)C)C(=O)N[C@@H](CC(=O)O)C(=O)N[C@@H](CO)C(=O)N[C@H](C(=O)N[C@@H](CCC(N)=O)C(=O)N[C@@H](CCCNC(=N)N)C(=O)O)[C@@H](C)O [KVp-N1] (H-CCPPPPGDGVYYPRDVFDSSVLDSTQR-OH),effect on 293T-ACE2^+ cells viability (CCK-8),[1],not significant
CCPPPPGDLFDDSNLDPFRDRISTRR (modifications not checked) [polypeptide KVp-R14],neutralization ability to SARS-CoV-2 pseudovirus,[2],50%
CCPPPPGDGVYYPRDVFDSSVLDSTQR (modifications not checked) [polypeptide KVp-N1],neutralization ability to SARS-CoV-2 pseudovirus,[2],50%
